Source: PMC2879659 (International journal of comparative psychology / ISCP ; …, 2010)

Key:
zebrafish (Danio rerio) [1] = assay: Novel dive tank test; conditions: 3 min exposure
zebrafish (Danio rerio) [2] = assay: Novel aquatic light/dark plus maze test; assay type: in vivo; conditions: for time frozen in the center of the maze: PETCO San Antonio zebrafish, N = 5-6, controls 81 ± 48 s
zebrafish (Danio rerio) [3] = conditions: cited from earlier work; for bottom dwelling by zebrafish, effect: another study, ref Bencan, Sledge, & Levin, 2009
zebrafish = conditions: ref Lau et al., 2010; cited from earlier work
zebrafish (Danio rerio) [4] = conditions: 0.05 h, 125 ug/mL
[5] = 25 mg/L, Aquatic Eco-Systems zebrafish, N = 9
[6] = 25 mg/L, PETCO zebrafish, N = 8
[7] = 125 mg/L, PETCO zebrafish, N = 4, not significant vs untreated
[8] = 50 and 100 mg/L, zebrafish from PETCO San Antonio, TX
[9] = nicotine 25 mg/L, AB, WIK, PETCO and GloFish lines

## C[S+](C)[O-] [DMSO]
Zebrafish (Danio rerio) [1]; 0.05% DMSO, PETCO zebrafish
  time spent in top 2/3 of dive tank, effect vs controls: no significant anxiolytic effect
Zebrafish (Danio rerio) [2]; 0.05% DMSO, PETCO zebrafish, N = 8
  total arm entries, effect vs controls: significant increase in total arm entries
Zebrafish (Danio rerio) [2]; 0.05% DMSO, PETCO zebrafish, N = 8, p < 0.05
  time in white arms, effect vs controls: spent significantly more time in white arms than untreated controls

## O=C1CC2(CCCC2)CC(=O)N1CCCCN1CCN(c2ncccn2)CC1 [buspirone]
Zebrafish (Danio rerio) [3]
  bottom dwelling by zebrafish, effect: reduced bottom dwelling

## CNC1=Nc2ccc(Cl)cc2C(c2ccccc2)=[N+]([O-])C1 [chlordiazepoxide]
zebrafish
  time spent on the light side of a tank, effect: increased the amount of time zebrafish spent on the light side of a tank
Zebrafish (Danio rerio) [1]; [5]
  time spent in top 2/3 of dive tank, effect vs controls: did not differ from untreated control fish
Zebrafish (Danio rerio) [2]; [5]
  total arm entries, effect: did not differ in total arm entries
Zebrafish (Danio rerio) [2]; 25 mg/L, Aquatic Eco-Systems zebrafish, N = 9, controls 60 ± 10 s
  time in the white arms: 124 ± 25 s
Zebrafish (Danio rerio) [2]; 25 mg/L, Aquatic Eco-Systems zebrafish, N = 9, untreated 22 ± 2%
  white arm entries, % of total entries: 36 ± 5%

## CN(C)CCCC1(c2ccc(F)cc2)OCc2cc(C#N)ccc21 (stereo not shown) [citalopram]
Zebrafish (Danio rerio) [2]; 100 mg/L, Aquatic Eco-Systems zebrafish
  anxiolytic behaviors in the plus maze: neither desipramine nor citalopram produced any anxiolytic behaviors in the plus maze
Zebrafish (Danio rerio) [2]; 100 mg/L, Aquatic Eco-Systems zebrafish, N = 9
  total arm entries, effect: did not differ in total arm entries

## CNCCCN1c2ccccc2CCc2ccccc21 [desipramine]
Zebrafish (Danio rerio) [1]; [6]
  time spent in top of dive tank, effect vs untreated: significantly more time in the top of the dive tank than untreated fish
Zebrafish (Danio rerio) [2]; 25 mg/L, PETCO zebrafish
  anxiolytic behaviors in the plus maze: neither desipramine nor citalopram produced any anxiolytic behaviors in the plus maze
Zebrafish (Danio rerio) [2]; [6]
  arm entries, effect vs controls: Neither nicotine nor desipramine exposure had any effect on arm entries

## CN1C(=O)CN=C(c2ccccc2)c2cc(Cl)ccc21 [diazepam]
Zebrafish (Danio rerio) [3]
  bottom dwelling by zebrafish, effect: reduced bottom dwelling

## CCO [ethanol]
Zebrafish (Danio rerio) [1]; 0.5% ethanol, PETCO zebrafish, p = 0.08
  time spent in top 2/3 of dive tank, effect vs controls: non-significant trend toward zebrafish spending more time in the top 2/3 of the tank
Zebrafish (Danio rerio) [2]; 0.5% ethanol, PETCO zebrafish, N = 7
  total arm entries, effect vs controls: significant increase in total arm entries
Zebrafish (Danio rerio) [2]; 0.5% ethanol, PETCO zebrafish, N = 7, untreated controls 41 ± 17 s
  time in white arms: 126 ± 20 s

## CN1CCC[C@H]1c1cccnc1 [nicotine]
Zebrafish (Danio rerio) [1]; [6]
  time spent in top of dive tank, effect vs untreated: Neither 25 mg/L nicotine (NIC) nor 0.05% DMSO affected behavior in the dive tank
Zebrafish (Danio rerio) [1]; nicotine 25 mg/L, AB, WIK, PETCO and GloFish lines, 5 min test
  time spent in top of dive tank, effect vs untreated: no significant anxiolytic effect
Zebrafish (Danio rerio) [4]
  time at the dive tank top: 4 ± 4 s
Zebrafish (Danio rerio) [2]; [6]
  arm entries, effect vs controls: Neither nicotine nor desipramine exposure had any effect on arm entries
Zebrafish (Danio rerio) [2]; 50 mg/L
  time frozen in the center of the maze: 9 ± 5 s
Zebrafish (Danio rerio) [2]; 100 mg/L
  time frozen in the center of the maze: 198 ± 46 s
Zebrafish (Danio rerio) [2]; [7]
  % of white entries: 25 ± 3%
  arm entries: 30 ± 9 entries
  time frozen in the middle: 57 ± 17 s
  total time spent in white arms: 56 ± 24 s
Zebrafish (Danio rerio) [2]; [8]
  time spent in white arms, effect: no effect
  white arm entries, effect: no effect
Zebrafish (Danio rerio) [2]; [9]
  % white arm entries of total entries, effect: no effect
  initial time frozen in centre (latency to enter an arm), effect: no influence
  time spent in white arms, effect: nor was there an effect
  total number of arm entries, effect: no effect
Zebrafish (Danio rerio) [3]; 50 and 100 mg/L, previous studies, ref Levin et al., 2007
  bottom dwelling in novel dive tanks, effect: reduced zebrafish bottom dwelling at earlier time points

## COC(=O)[C@@H]1[C@H]2C[C@H]3c4[nH]c5ccccc5c4CCN3C[C@@H]2CC[C@@H]1O [yohimbine]
Zebrafish (Danio rerio) [1]; [5]
  time spent in top 2/3 of dive tank, effect vs controls: did not differ from untreated control fish
Zebrafish (Danio rerio) [2]; [5]
  total arm entries, effect: did not differ in total arm entries
